Results from ChEMBL document CHEMBL2034840, “Automated generation of turn mimetics: proof of concept study for the MC4 receptor” (Bioorg Med Chem, 2012).

molecular target: Melanocortin receptor 4 (Homo sapiens, UniProt P32245); test: Displacement of [125I]NDPMSH from human MC4 receptor expressed in HEK293 cells after 2 hrs by liquid scintillation counting; type: cell-based; settings: not given
Sequence (P32245 whole entry): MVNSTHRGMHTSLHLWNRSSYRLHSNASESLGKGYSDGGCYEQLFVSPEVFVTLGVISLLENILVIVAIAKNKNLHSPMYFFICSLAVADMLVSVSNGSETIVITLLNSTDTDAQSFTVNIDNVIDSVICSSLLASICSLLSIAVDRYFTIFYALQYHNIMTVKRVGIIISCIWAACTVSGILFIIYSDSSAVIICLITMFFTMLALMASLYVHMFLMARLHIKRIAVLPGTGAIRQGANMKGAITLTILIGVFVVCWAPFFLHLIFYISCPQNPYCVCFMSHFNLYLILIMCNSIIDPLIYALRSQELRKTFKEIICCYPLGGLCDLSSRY

First: O=C(NCCCc1ccccc1)[C@H]1CNC[C@H]1C(=O)NCc1ccc(C(F)(F)F)cc1
Second: O=C(NCCc1ccccc1)[C@@H]1CNC[C@H]1C(=O)NCc1ccccc1
The Ki of the first is 5.8-fold higher: 5800 nM for the first, 1000 nM for the second. The second binds more tightly here.

O=C(CNC(=O)[C@H]1CNC[C@H]1C(=O)NCCc1c[nH]c2ccccc12)c1ccccc1 and O=C(NCc1ccccc1)[C@H]1CNC[C@H]1C(=O)NCCc1c[nH]c2ccccc12 are the same in Ki: 5500 nM for the first, 5500 nM for the second.

Compared with O=C(NCc1ccccc1)[C@@H]1CNC[C@H]1C(=O)NCc1ccccc1, O=C(NCc1ccccc1)[C@@H]1CNC[C@H]1C(=O)Nc1cccc(-c2ccccc2)c1 is 7.3-fold higher in Ki: 900 nM for the first, 6600 nM for the second. The first binds more tightly here.

NCCNC(=O)[C@@H]1CNC[C@H]1C(=O)NC(=O)c1ccccc1 and O=C(NCCc1ccccc1)[C@H]1CNC[C@H]1C(=O)NC1CCN(Cc2ccccc2)C1 (stereo in doubt; 3a) are within 1.5-fold of each other in Ki: 5300 nM for the first, 5000 nM for the second.

Compared with O=C(NCCc1cccc(F)c1)[C@H]1CN(CC2CC2)C[C@H]1C(=O)NC1CCN(Cc2ccccc2)C1 (mixture of isomers), O=C(NCCc1cccc(Cl)c1)[C@H]1CN(CC2CC2)C[C@H]1C(=O)NC1CCN(Cc2ccccc2)C1 (mixture of isomers) is 2.7-fold lower in Ki: 1800 nM for the first, 670 nM for the second.

Going from O=C(NCCc1ccc(Cl)cc1)[C@H]1CN(CC2CC2)C[C@H]1C(=O)NC1CCN(Cc2ccccc2)C1 (mixture of isomers) to O=C(NCCc1ccccc1)[C@H]1CN(CC2CC2)C[C@H]1C(=O)NC1CCN(Cc2ccccc2)C1 (mixture of isomers), the Ki rises from 380 nM to 2600 nM (6.8-fold).

Going from O=C(NCCc1ccc(Cl)cc1Cl)[C@H]1CN(CC2CC2)C[C@H]1C(=O)NC1CCN(Cc2ccccc2)C1 (mixture of isomers) to O=C(NCc1ccc(Cl)cc1Cl)[C@H]1CN(CC2CC2)C[C@H]1C(=O)NC1CCN(Cc2ccccc2)C1 (mixture of isomers), the Ki falls from 160 nM to 70 nM (2.3-fold).

First: O=C(NCc1cccc(Cl)c1)[C@H]1CN(CC2CC2)C[C@H]1C(=O)NC1CCN(Cc2ccccc2)C1 (mixture of isomers)
Second: O=C(NCCc1ccccc1)[C@H]1CN(CCO)C[C@H]1C(=O)NC1CCN(Cc2ccccc2)C1 (mixture of isomers)
The Ki of the first is 16-fold lower: 400 nM for the first, 6200 nM for the second. The first binds more tightly here.

O=C(NCCc1ccccc1)[C@H]1CN(CCOc2ccccc2)C[C@H]1C(=O)NC1CCN(Cc2ccccc2)C1 (mixture of isomers) gave a Ki of 1000 nM.

same assay, conditions: hek293

O=C(NCCc1ccccc1)[C@H]1CNC[C@H]1C(=O)NC1CCN(Cc2ccccc2)C1 (mixture of isomers) gave a Ki of 5000 nM.
